The subject of assay [1] is Oryctolagus cuniculus. Put plainly: Lowering of intraocular pressure in rabbit eye at 10 mM administered topically. Type of assay: functional, organism-based.
Assay [2] concerns the target T1, Soluble guanylate cyclase (Homo sapiens) (UniProt Q02153+O75343+P33402+Q02108). Put plainly: Effect on cGMP production in porcine iris-ciliary body at 10 uM. The assay is classed as functional. Particulars: Sus scrofa, target entry is the homologue from another species.
In assay [3] the target is T1, Soluble guanylate cyclase (Homo sapiens). Put plainly: Effect on cGMP production in porcine iris-ciliary body at 100 uM. The assay is classed as functional. Particulars: Sus scrofa, target entry is the homologue from another species.
Assay [4] is filed under the species Oryctolagus cuniculus. Put plainly: Lowering of intraocular pressure in rabbit eye intravitreally injected with 10 mM. Type of assay: functional, organism-based.

Calls of active or inactive are those of the source. The calls are words filed in the database; no cut-off is given here.

`CCCC(=O)O/N=C(/c1c[nH]cn1)[N+](=O)[O-]`: the outcome with Oryctolagus cuniculus [1] was inactive. Besides, the Activity in assay [2] is 0.5 pmol/mg; in assay [3] it was 0.38 pmol/mg.
For `Cn1cncc1C(=N)NOC(=O)C(C)(C)C`, in that order: “inactive”, 0.63 pmol/mg and 0.24 pmol/mg.
For `CCCC(=O)ONC(=N)c1cncn1C`, in that order: “inactive”, 0.23 pmol/mg and 0.24 pmol/mg.
In the case of `CC(=O)ONC(=N)c1cncn1C`, the outcome in the assay on Oryctolagus cuniculus [1] and in the assay listed under Oryctolagus cuniculus [4] was inactive.
Regarding `CC(C)(C)C(=O)O/N=C(/c1c[nH]cn1)[N+](=O)[O-]`, the result in the assay on Oryctolagus cuniculus [1] was inactive. Besides, the results for the Activity in assay [2] and in assay [3] were 0.36 pmol/mg and 0.73 pmol/mg, respectively.
On to `CC(=O)O/N=C(/c1c[nH]cn1)[N+](=O)[O-]`, for which the result with Oryctolagus cuniculus [1] was inactive. The Activity in assay [2] stood at 0.45 pmol/mg; in assay [3] it was 0.78 pmol/mg.

For the origin of these results see ChEMBL document CHEMBL1146947, “Synthesis and ocular effects of imidazole nitrolic acid and amidoxime esters” (Bioorg Med Chem Lett, 2006).
